The values that follow come from patent US10696615B2, “Prenylated hydroxystilbenes” (The University of Sydney, priority 2011, dated 2020).

≈ marks a conversion by molar mass, not a printed value. Like-named read-outs stand apart in the source and are kept apart here.

One series relates to MRSA. Kind of series: MIC screening, broth microdilution (CLSI). A general note: Broth dilution looks for growth in wells or tubes with falling amounts of substance.
Another series relates to Streptococci. Kind of series: MIC screening, broth microdilution (CLSI).
The subject of the next series is Enterococci. Kind of series: MIC screening, broth microdilution (CLSI).
The subject of the next series is Haemophilus influenzae. Kind of series: MIC screening, broth microdilution (CLSI).
Series [1] deals with Acinetobacter calcoaceticus. Kind of series: MIC screening, broth microdilution (CLSI).
Description: (§1) The minimum inhibition concentration (MIC) screening was performed with 14 bacterial strains and 4 compounds. The MICs were determined by the broth microdilution method according to the Clinical and Laboratory Standards Institute (CLSI) guidelines. The MIC screening was performed on 96-well plates containing the compounds in serial 2-fold dilutions from 64 to 0.06 μg/ml. The bacterial inoculations were prepared in cation-adjusted Mueller Hinton medium broth from cultures grown on appropriate agar plates which are prepared freshly every week. The growth controls and sterile controls were included in each assay plates. The assay plates were incubated in an ambient-air incubator at 35±2° C. for 16-20 hr (24 hr for MRSA), and bacterial growth was observed and recorded.
(§2) Compound stock solutions were prepared in 100% DMSO on the day of MIC screening and use immediately. Compound stock concentration=[(highest testing concentration)×103 μl/3 μl] (e.g. if the required highest testing concentration is 64 μg/ml in assay plates, stock concentration=64×103/3=2.2 mg/ml). The potency of testing compound is assumed as 100% unless otherwise stated whereas the potency of reference compound is calculated according to manufacturer's analysis data.
(§3) Eleven two-fold dilutions per compound were made then transferred 3 μl to each well of test plate. Final concentration of DMSO in the MIC screening is ˜3%.
(§4) B. Transfer colonies from fresh culture plates into 5 ml of saline with sterile loops and mix well. Measure and adjust turbidity to 0.5 McFarland barium sulphate standard using a turbidity meter. Alternatively, transfer 1-2 colonies into 500 μl of saline and adjust OD625 to ˜0.1 using a plate reader. […] Dilute bacterial inoculum 1:280 for Gram-positive and fastidious strains and 1:400 for Gram-negative strains into corresponding medium broth (CAMHB, CAMHB+3% lysed horse blood, HTM) (e.g. 35.6 μl of inoculum into 10 ml of CAMHB or 25 μl of inoculum into 10 ml of CAMHB). H. influenzae: HTM Streptococci: CAMHB+3% lysed horse blood Other strains in the panel: CAMHB 2.4. Prepare Assay Plates A. Add 100 μl of the bacterial inoculum to each well of the compound plates except wells B12, D12, F12 and H12. B. Add 100 μl of medium broth to wells B12, D12, F12 and H12 of the compound plates. […] Stack four plates together and cover with a sterile plate lid. Incubate in an ambient-air incubator at 35±2° C. for 16-20 hours (24 hours for MRSA). […] Perform Colony Counts A. Dilute the bacterial inoculum (0.5 McFarland) to a serial of 10-1 to 10-7 in saline solution (e.g. 100 μl bacterial inoculum+900 μl of saline). B. Spread 100 μl of each dilution (10-4, 10-5, 10-6, and 10-7) onto CAMHA plates in triplication, let the liquid soak into the agar for 10 minutes, invert the agar plates and incubate for 24 hr at 35±2° C. […] Record MICs and Calculate CFUs A. Open the compound plate layout in the compound management system, and check the assay plate barcode. B. Place the assay plate on the top of MIC reader, and adjust the magnification mirror to read each wells, record growth status as raw data. (Optional) Record photo image of each assay plates using high-speed high-resolution scanner. […] Determine MIC break points according to CLSI guideline. D. Count colonies and calculate CFU of bacterial inoculum.
The test system of another series is Escherichia coli. As to the kind of experiment: MIC screening, broth microdilution (CLSI).
Another series concerns Klebsiella pneumoniae. Kind of series: MIC screening, broth microdilution (CLSI).
Another series deals with Pseudomonas aeruginosa. Kind of series: MIC screening, broth microdilution (CLSI).
The next series relates to Staphylococcus aureus. Kind of series: MIC screening, broth microdilution (CLSI).
For series [2] the following is noted: background statement; cited from earlier work.

Description for Enterococci: as §1
(§5) A. Revive bacterial strains from storage frozen (−80° C.) two days before the MIC screening. Streak onto surface of appropriate agar plates, and incubate the plates for 20-24 hr at 35±2° C. in an appropriate atmosphere.
Enterococci: TSA II, ambient air
(§6) B. Select 5-10 well-isolated colonies of similar morphology and restreak onto fresh agar plates using sterile loops. Incubate the plates for 20-24 hr at 35±2° C. in an appropriate atmosphere as above.
as §2, §3
B. Transfer colonies from fresh culture plates into 5 ml of saline with sterile loops and mix well. Measure and adjust turbidity to 0.5 McFarland barium sulphate standard using a turbidity meter. Alternatively, transfer 1-2 colonies into 500 μl of saline and adjust OD625 to ˜0.1 using a plate reader. C. Dilute bacterial inoculum 1:280 for Gram-positive and fastidious strains and 1:400 for Gram-negative strains into corresponding medium broth (CAMHB, CAMHB+3% lysed horse blood, HTM) (e.g. 35.6 μl of inoculum into 10 ml of CAMHB or 25 μl of inoculum into 10 ml of CAMHB). H. influenzae: HTM Streptococci: CAMHB+3% lysed horse blood Other strains in the panel: CAMHB 2.4. Prepare Assay Plates A. Add 100 μl of the bacterial inoculum to each well of the compound plates except wells B12, D12, F12 and H12. B. Add 100 μl of medium broth to wells B12, D12, F12 and H12 of the compound plates. C. Stack four plates together and cover with a sterile plate lid. Incubate in an ambient-air incubator at 35±2° C. for 16-20 hours (24 hours for MRSA). […] Perform Colony Counts A. Dilute the bacterial inoculum (0.5 McFarland) to a serial of 10-1 to 10-7 in saline solution (e.g. 100 μl bacterial inoculum+900 μl of saline). B. Spread 100 μl of each dilution (10-4, 10-5, 10-6, and 10-7) onto CAMHA plates in triplication, let the liquid soak into the agar for 10 minutes, invert the agar plates and incubate for 24 hr at 35±2° C. […] Record MICs and Calculate CFUs A. Open the compound plate layout in the compound management system, and check the assay plate barcode. B. Place the assay plate on the top of MIC reader, and adjust the magnification mirror to read each wells, record growth status as raw data. (Optional) Record photo image of each assay plates using high-speed high-resolution scanner. C. Determine MIC break points according to CLSI guideline. D. Count colonies and calculate CFU of bacterial inoculum.
Description for Escherichia coli: as §1, §2, §3, §4
Description for Haemophilus influenzae: as §1, §5
Haemophilus influenzae: chocolate agar, 5% CO2
as §6, §2, §3, §4
Description for Klebsiella pneumoniae: as §1, §2, §3, §4
Description for MRSA: The MICs were determined by the broth microdilution method according to the Clinical and Laboratory Standards Institute (CLSI) guidelines. The MIC screening was performed on 96-well plates containing the compounds in serial 2-fold dilutions from 64 to 0.06 μg/ml. The bacterial inoculations were prepared in cation-adjusted Mueller Hinton medium broth from cultures grown on appropriate agar plates which are prepared freshly every week. The growth controls and sterile controls were included in each assay plates. The assay plates were incubated in an ambient-air incubator at 35±2° C. for 16-20 hr (24 hr for MRSA), and bacterial growth was observed and recorded.
as §5, §6, §2, §3, §4
Description for Pseudomonas aeruginosa: as §1, §2, §3, §4
Description for Staphylococcus aureus: as §1, §2, §3, §4
Description for Streptococci: as §1, §5
Streptococci: TSA II, 5% CO2
as §6, §2, §3, §4

With `C[C@H]1COc2c(N3CCN(C)CC3)c(F)cc3c(=O)c(C(=O)O)cn1c23` [Levofloxacin, reference compound], the MIC was 0.25 µg/mL (≈ 0.692 µM) against MRSA (Staphylococcus aureus (ATCC 43300), Exp 2); 8 µg/mL (≈ 22.1 µM) in the series with MRSA (Staphylococcus aureus (MRSA, Erythromycin & clindamycin-resistant), Exp 2); 0.25 µg/mL (≈ 0.692 µM) with MRSA (Staphylococcus aureus, ATCC43300 / MRSA); 8 µg/mL (≈ 22.1 µM) with MRSA (Staphylococcus aureus, MRSA); 0.5 µg/mL (≈ 1.38 µM) in the series with Streptococci (Streptococcus pneumoniae, ATCC49619, Streptococcus pneumoniae (ATCC 49619), Exp 1); 0.5 µg/mL (≈ 1.38 µM) in the series with Streptococci (Streptococcus pneumoniae, ATCC49619, Streptococcus pneumoniae (ATCC 49619), Exp 2). Moreover, the MIC against Streptococci (Streptococcus pneumoniae, Streptococcus pneumoniae (Erythromycin-resistant), Exp 1) was found to be 1 µg/mL (≈ 2.77 µM); in the series on Streptococci (Streptococcus pneumoniae, Streptococcus pneumoniae (Erythromycin-resistant), Exp 2) it was 1 µg/mL (≈ 2.77 µM); against Streptococci (Streptococcus pyogenes, ATCC700942, Streptococcus pyogenes (ATCC 700942), Exp 1), 0.5 µg/mL (≈ 1.38 µM); against Streptococci (Streptococcus pyogenes, ATCC700942, Streptococcus pyogenes (ATCC 700942), Exp 2), 0.5 µg/mL (≈ 1.38 µM); with Enterococci (Enterococcus faecalis, ATCC29212, Enterococcus faecalis (ATCC 29212), Exp 1) it was 1 µg/mL (≈ 2.77 µM); in the series on Enterococci (Enterococcus faecalis, ATCC29212, Enterococcus faecalis (ATCC 29212), Exp 2), 1 µg/mL (≈ 2.77 µM). Moreover, the MIC against Enterococci (Enterococcus faecium, ATCC700221, Enterococcus faecium (ATCC 700221), Exp 1) is above 64 µg/mL; in the series with Enterococci (Enterococcus faecium, ATCC700221, Enterococcus faecium (ATCC 700221), Exp 2) it was above 64 µg/mL; against Haemophilus influenzae it was below 0.0625 µg/mL; in the series on Haemophilus influenzae (Exp 2), below 0.0625 µg/mL; in series [1], 4 µg/mL (≈ 11.1 µM); in series [1] (Exp 2), 4 µg/mL (≈ 11.1 µM). The MIC is below 0.0625 µg/mL with Escherichia coli (Exp 1); below 0.0625 µg/mL in the series on Escherichia coli (Exp 2); 1 µg/mL (≈ 2.77 µM) in the series on Klebsiella pneumoniae; 1 µg/mL (≈ 2.77 µM) against Klebsiella pneumoniae (Exp 2); 1 µg/mL (≈ 2.77 µM) against Pseudomonas aeruginosa; 1 µg/mL (≈ 2.77 µM) in the series on Pseudomonas aeruginosa (Exp 2). Also, the MIC turned out to be 0.5 µg/mL (≈ 1.38 µM) in the series on Staphylococcus aureus (ATCC29213, Staphylococcus aureus (ATCC 29213), Exp 1); 0.25 µg/mL (≈ 0.692 µM) in the series on Staphylococcus aureus (ATCC29213, Staphylococcus aureus (ATCC 29213), Exp 2); 64 µg/mL (≈ 177 µM) in the series with Staphylococcus aureus (Staphylococcus aureus (Levofloxacin-resistant), Exp 1); 64 µg/mL (≈ 177 µM) in the series with Staphylococcus aureus (Staphylococcus aureus (Levofloxacin-resistant), Exp 2).

As to `Oc1ccc(/C=C/c2cc(O)cc(O)c2)cc1` [Resveratrol], the oral bioavailability entry in series [2] is “very poor oral bioavailability”.
